The source of these data is patent US11634436B2, “Pyridine lactam compounds and methods of use thereof” (Genentech, Inc., priority 2018, dated 2023).

For the experiment, the target named is T1, human RIP1 kinase domain (2-375) (Homo sapiens, UniProt Q13546).
T1 construct: Purified human RIP1 kinase domain (2-375) (50 nM) derived from a baculovirus-infected insect cell expression system; made in house; host or cells: baculovirus-infected insect cells
T1 sequence (Q13546 2-375): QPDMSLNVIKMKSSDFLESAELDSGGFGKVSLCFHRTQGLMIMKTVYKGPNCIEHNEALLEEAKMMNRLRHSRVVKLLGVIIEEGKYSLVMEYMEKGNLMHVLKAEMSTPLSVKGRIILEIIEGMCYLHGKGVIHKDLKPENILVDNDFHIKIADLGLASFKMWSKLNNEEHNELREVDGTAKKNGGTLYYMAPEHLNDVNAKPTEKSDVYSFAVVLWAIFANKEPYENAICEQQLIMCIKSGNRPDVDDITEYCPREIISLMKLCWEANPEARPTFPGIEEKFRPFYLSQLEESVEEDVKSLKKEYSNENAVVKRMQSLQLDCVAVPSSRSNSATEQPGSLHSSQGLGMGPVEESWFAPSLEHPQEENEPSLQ
The experiment can be described thus: RIP1 kinase inhibition biochemical assay (Transcreener ADP, fluorescence polarization). The following applies: tight-binding apparent inhibition constant (Ki app, Morrison equation); 50 nM enzyme, 50 uM ATP, 2 hours incubation. The procedure: RIP1 Kinase Inhibition Assays (Biochemical Assay)
The compounds of the present invention were tested for their capacity to inhibit RIP1K activity as described below.
Enzyme assay: The ability of the receptor interacting protein kinase (RIPK1) to catalyze the hydrolysis of adenosine-5′-triphosphate (ATP) is monitored using the Transcreener ADP (adenosine-5′-diphosphate) assay (BellBrook Labs). Purified human RIP1 kinase domain (2-375) (50 nM) derived from a baculovirus-infected insect cell expression system is incubated with test compounds for 2 hours in 50 mM Hepes buffer (pH 7.5) containing 30 mM MgCl2, 1 mM dithiothreitol, 50 uM ATP, 0.002% Brij-35, and 0.5% dimethyl sulfoxide (DMSO). Reactions are quenched by the addition of 1× Bell Brooks Stop buffer B (20 mM Hepes (ph7.5), 40 mM ethylenediaminetetraacetic acid and 0.02% Brij-35) containing an additional 12 mM EDTA and 55 ug/mL ADP2 antibody and 4 nM ADP-AlexaFluor® 633 tracer. The tracer bound to the antibody is displaced by the ADP generated during the RIP1K reaction, which causes a decrease in fluorescence polarization that is measured by laser excitation at 633 nm with a FP microplate reader M1000. Fractional activity was plotted against test article concentration. Using Genedata Screener software (Genedata; Base1, Switzerland), the data were fit to the tight-binding apparent inhibition constant (Ki^app) Morrison equation [Williams, J. W. and Morrison, J. F. (1979) The kinetics of reversible tight-binding inhibition. Methods Enzymol 63: 437-67]. The following equation was used to calculate fractional activity and Ki^app:
[formula] where [E]T and [I]T are the total concentrations of active enzyme and test article, respectively.
Exemplary compounds of the present invention are provided in Table 1 along with their physiochemical characterization and in vitro RIP1 kinase inhibitory activity data. “Method” in the first column of each table refers to the synthetic method(s) used to prepare each compound as shown in the Examples above. In certain examples, chiral column retention times (min) are provided for certain stereoisomers. Unless otherwise specified, the stereochemistry shown in each structure represents relative configuration of a single stereoisomer, and absolute configuration (i.e., “R” and/or “S”) is arbitrarily assigned. In some embodiments, where the Method is described to include the separation of stereoisomers, a single stereoisomer of a compound of Table 1 is provided.

Structures are written as SMILES.

In the case of `CCC(F)(F)n1ncc2cnc(C(=O)N[C@H]3COc4cccnc4N(C)C3=O)cc21` [Example 12, 1-(1,1-difluoropropyl)-N-[(3S)-5-methyl-4-oxo-2,3-dihydropyrido[3,2-b][1,4]oxazepin-3-yl]pyrazolo [4,3-c]pyridine-6-carboxamide], the Ki came to 5 nM.
With `CCC(F)(F)n1ncc2cnc(C(=O)N[C@H]3COc4cccnc4N(C)C3=O)nc21` [Example 8, 1-(1,1-difluoropropyl)-N-[(3S)-5-methyl-4-oxo-2,3-dihydropyrido[3,2-b][1,4]oxazepin-3-yl]pyrazolo [3,4-d]pyrimidine-6-carboxamide], the Ki amounted to 18 nM.
On to `CC(C)n1ncc2cnc(C(=O)N[C@H]3COc4cccnc4N(C)C3=O)nc21` [Example 2, 1-isopropyl-N-[(3S)-5-methyl-4-oxo-2,3-dihydropyrido[3,2-b][1,4]oxazepin-3-yl]pyrazolo[3,4-d]pyrimidine-6-carboxamide], for which the Ki was 14 nM.
For `CN1C(=O)[C@@H](NC(=O)c2cc3n(n2)[C@H](c2ccccc2)C[C@@H]3F)COc2cccnc21` (single isomer, unassigned) [Example 1], the Ki was 5.2 nM.
On to `CN1C(=O)[C@@H](NC(=O)c2ncc3cnn(C4CCCC4)c3n2)COc2cccnc21` [Example 9, 1-cyclopentyl-N-[(3S)-5-methyl-4-oxo-2,3-dihydropyrido[3,2-b][1,4]oxazepin-3-yl]pyrazolo [3,4-d]pyrimidine-6-carboxamide], for which the Ki amounted to 11 nM.
As for `CN1C(=O)[C@@H](NC(=O)c2cc3n(n2)CCO[C@H]3c2ccccc2)COc2cccnc21` (single isomer, unassigned) [Example 5], the Ki came out at 19 nM.
`C[C@H]1Oc2cccnc2N(C)C(=O)[C@H]1NC(=O)c1cc2n(n1)CCO[C@H]2c1ccccc1` [Example 6, (4S)-4-phenyl-N-[(2R,3S)-2,5-dimethyl-4-oxo-2,3-dihydropyrido[3,2-b][1,4]oxazepin-3-yl]-6,7-dihydro-4H-pyrazolo[5,1-c][1,4]oxazine-2-carboxamide]: the Ki was 7 nM.
Consider `CN1C(=O)[C@@H](NC(=O)c2cc3n(n2)CCO[C@H]3c2ccccc2F)COc2cccnc21` (single isomer, unassigned) [Example 3], for which the Ki amounted to 24 nM.
As for `CN1C(=O)[C@@H](NC(=O)c2cc3n(n2)CCO[C@@H]3c2ccccc2F)COc2cccnc21` (single isomer, unassigned) [Example 4], the Ki came out at 950 nM.
Consider `[2H]C([2H])([2H])N1C(=O)[C@@H](NC(=O)c2cc3n(n2)CCO[C@H]3c2ccccc2)COc2cccnc21` [Example 7, (4S)-4-phenyl-N-[(3S)-4-oxo-5-(trideuteriomethyl)-2,3-dihydropyrido[3,2-b][1,4]oxazepin-3-yl]-6,7-dihydro-4H-pyrazolo[5,1-c][1,4]oxazine-2-carboxamide], for which the Ki came out at 28 nM.
As to `CN1C(=O)[C@@H](NC(=O)c2cc3n(n2)[C@@H](c2ccccc2)C[C@H]3F)COc2ccccc21` (single isomer, unassigned) [Example 10], the Ki was 5400 nM.
As for `CN1C(=O)[C@@H](NC(=O)c2cc3n(n2)[C@H](c2ccccc2)C[C@@H]3F)COc2ccccc21` (single isomer, unassigned) [Example 11], the Ki stood at 4.4 nM.
